From ChEMBL document CHEMBL1157052, “Novel cyclic-imide peptidomimetics as aminopeptidase N inhibitors. Structure-based design, chemistry and activity evaluation. II” (Eur J Med Chem, 2010)
The source made the active and inactive calls. No cut-off for these calls is given here.

Experiments:
[1] = biological target: Aminopeptidase N (Sus scrofa) (UniProt P15145); assay: Inhibition of aminopeptidase N
[2] = tested on: HL-60; assay: Antiproliferative activity against human HL60 cells after 48 hrs by MTT assay; details: HL-60, 48 h
[3] = tested on: H22; assay: Antimetastatic activity against mouse H22 cells transplanted in mouse lung assessed as inhibition of tumor growth on the surface of lungs at 50 mg/kg/day, po for 6 days a week for 2 weeks; assay type: functional; details: read-out: TGI
[4] = tested on: K562; assay: Antiproliferative activity against human K562 cells at 400 ug/ml after 48 hrs by MTT assay; assay type: functional, cell-based
[5] = Antimetastatic activity against human ES2 cells xenografted in mouse lung assessed as inhibition of tumor growth at 10 mg/kg/day, po for 6 days a week for 2 weeks; assay type: functional; details: ES-2, read-out: TGI
[6] = Antimetastatic activity against human ES2 cells xenografted in mouse lung assessed as inhibition of tumor growth at 50 mg/kg/day, po for 6 days a week for 2 weeks; assay type: functional; details: ES-2, read-out: TGI

Chain of Aminopeptidase N (Sus scrofa) (P15145 whole entry, looked up): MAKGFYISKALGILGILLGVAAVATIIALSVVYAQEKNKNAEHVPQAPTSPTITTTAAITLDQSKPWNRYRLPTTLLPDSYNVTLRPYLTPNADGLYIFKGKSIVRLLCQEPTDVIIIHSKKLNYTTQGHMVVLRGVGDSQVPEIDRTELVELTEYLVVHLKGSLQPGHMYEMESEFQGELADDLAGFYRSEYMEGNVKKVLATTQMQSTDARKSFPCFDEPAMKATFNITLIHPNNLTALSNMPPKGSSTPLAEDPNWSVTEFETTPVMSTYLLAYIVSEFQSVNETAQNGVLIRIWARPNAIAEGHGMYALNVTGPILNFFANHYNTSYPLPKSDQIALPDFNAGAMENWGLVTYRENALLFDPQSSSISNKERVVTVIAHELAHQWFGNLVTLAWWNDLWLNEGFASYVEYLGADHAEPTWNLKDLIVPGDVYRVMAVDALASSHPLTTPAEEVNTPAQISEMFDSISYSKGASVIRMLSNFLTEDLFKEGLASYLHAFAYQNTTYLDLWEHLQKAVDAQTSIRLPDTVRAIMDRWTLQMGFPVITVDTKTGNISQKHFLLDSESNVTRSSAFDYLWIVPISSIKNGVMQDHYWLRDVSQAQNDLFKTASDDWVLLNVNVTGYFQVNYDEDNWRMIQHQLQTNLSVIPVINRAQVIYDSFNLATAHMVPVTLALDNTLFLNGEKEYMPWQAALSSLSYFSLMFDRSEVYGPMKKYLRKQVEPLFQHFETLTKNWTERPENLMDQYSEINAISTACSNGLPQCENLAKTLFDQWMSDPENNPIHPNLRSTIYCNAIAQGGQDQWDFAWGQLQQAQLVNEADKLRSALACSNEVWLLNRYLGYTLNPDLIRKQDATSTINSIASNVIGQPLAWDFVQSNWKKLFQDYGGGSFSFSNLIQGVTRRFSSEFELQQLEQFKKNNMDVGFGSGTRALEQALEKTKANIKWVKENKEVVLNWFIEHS

COc1cc(C(=O)N[C@H]2CCC(=O)N(CC(=O)NO)C2=O)cc(OC)c1OC
IC50 [1]: 3.1 µM

N[C@@H](Cc1ccc(O)cc1)C(=O)N[C@H]1CCC(=O)N(CC(=O)NO)C1=O
IC50 [2]: 147 µM
inhibition in vivo at 50 mg/kg/day [3]: 62.7%

N[C@@H](Cc1ccccc1)C(=O)N[C@H]1CCC(=O)N(CC(=O)NO)C1=O
IC50 [2]: 105 µM
Activity [4]: inactive
inhibition in vivo at 50 mg/kg/day [3]: 72.9%
inhibition in vivo at 10 mg/kg/day [5]: 30.9%

CC(C)C[C@H](NC(=O)[C@@H](O)[C@H](N)Cc1ccccc1)C(=O)O [UBENIMEX]
inhibition in vivo at 50 mg/kg/day [3]: 45.4%
inhibition in vivo at 50 mg/kg/day [6]: 36.2%
